According to article PMC6540285, “Evaluation of Protein Kinase Inhibitors with PLK4 Cross-Over Potential in a Pre-Clinical Model of Cancer” (International Journal of Molecular Sciences, 2019):

What was measured:
AMPK (A1/B2/G1) = AMPK (A1/B2/G1) (Homo sapiens, UniProt Q13131); experiment: SelectScreen kinase profiling, LanthaScreen binding
MAP4K2 (GCK) = MAP4K2 (GCK) (Homo sapiens, UniProt Q12851); experiment: SelectScreen kinase profiling, ZLYTE; type: biochemical
MAP2K6 (MKK6) [1] = target: T1, MAP2K6 (MKK6) (Homo sapiens, UniProt P52564); experiment: SelectScreen kinase profiling, ZLYTE; type: biochemical
EPHA3 = EPHA3 (Homo sapiens, UniProt P29320); experiment: SelectScreen kinase profiling, LanthaScreen binding; conditions: EPHA3, 10 µM
ACVR1B (ALK4) = ACVR1B (ALK4) (Homo sapiens, UniProt P36896); experiment: SelectScreen kinase profiling, ZLYTE; type: biochemical
EPHB1 = EPHB1 (Homo sapiens, UniProt P54762); experiment: SelectScreen kinase profiling, ZLYTE; type: biochemical; conditions: EPHB1, 10 µM
P450 2J2 = P450 2J2 (Homo sapiens, UniProt P51589); experiment: SelectScreen P450 Vivid biochemical assay; conditions: 10000nM; substrate MOBFC
AMPK (A1/B1/G3) = AMPK (A1/B1/G3) (Homo sapiens, UniProt Q13131); experiment: SelectScreen kinase profiling, LanthaScreen binding
MAP2K6 (MKK6) [2] = target: T1, MAP2K6 (MKK6); experiment: as above
RET G691S = RET G691S (Homo sapiens, UniProt P07949, G691S); experiment: as above
DDR2 T654M = DDR2 T654M (Homo sapiens, UniProt Q16832, T654M); experiment: as above
ABL2 (Arg) = ABL2 (Arg) (Homo sapiens, UniProt P42684); experiment: SelectScreen kinase profiling, ZLYTE; type: biochemical
PIM1 = PIM1 (Homo sapiens, UniProt P11309); experiment: SelectScreen kinase profiling, ZLYTE; type: biochemical; conditions: PIM1, 10 µM
AMPK (A2/B2/G2) = AMPK (A2/B2/G2) (Homo sapiens, UniProt P54646); experiment: SelectScreen kinase profiling, LanthaScreen binding
MAP2K1 (MEK1) = MAP2K1 (MEK1) (Homo sapiens, UniProt Q02750); experiment: SelectScreen kinase profiling, ZLYTE; type: biochemical
CHEK2 (CHK2) = CHEK2 (CHK2) (Homo sapiens, UniProt O96017); experiment: SelectScreen kinase profiling, ZLYTE; type: biochemical
LYN A = LYN A (Homo sapiens, UniProt P07948); experiment: SelectScreen kinase profiling, ZLYTE; type: biochemical
MERTK (cMER) = MERTK (cMER) (Homo sapiens, UniProt Q12866); experiment: SelectScreen kinase profiling, ZLYTE; type: biochemical
EPHB2 = EPHB2 (Homo sapiens, UniProt P29323); experiment: SelectScreen kinase profiling, ZLYTE; type: biochemical; conditions: EPHB2, 10 µM
ACVR1 (ALK2) R206H = ACVR1 (ALK2) R206H (Homo sapiens, UniProt Q04771, R206H); experiment: SelectScreen kinase profiling, LanthaScreen binding
MAPK12 (p38 gamma) = MAPK12 (p38 gamma) (Homo sapiens, UniProt P53778); experiment: SelectScreen kinase profiling, ZLYTE; type: biochemical
[3] = target: PIK3CA E545K/PIK3R1 (p110 alpha E545K/p85 alpha) (Homo sapiens, UniProt P42336, E545K); experiment: SelectScreen kinase profiling, Adapta; type: biochemical; conditions: PIK3CA E545K/PIK3R1, 10 µM
CLK3 = CLK3 (Homo sapiens, UniProt P49761); experiment: SelectScreen kinase profiling, ZLYTE; type: biochemical; conditions: CLK3, 10 µM
AURKA (Aurora A) = AURKA (Aurora A) (Homo sapiens, UniProt O14965); experiment: SelectScreen kinase profiling, ZLYTE; type: biochemical
ALK F1174L = ALK F1174L (Homo sapiens, UniProt Q9UM73, F1174L); experiment: SelectScreen kinase profiling, LanthaScreen binding
hERG channel = hERG channel (Homo sapiens, UniProt Q12809); experiment: biochemical
AMPK (A2/B2/G3) = AMPK (A2/B2/G3) (Homo sapiens, UniProt P54646); experiment: SelectScreen kinase profiling, ZLYTE; type: biochemical
PRKCG (PKC gamma) = PRKCG (PKC gamma) (Homo sapiens, UniProt P05129); experiment: SelectScreen kinase profiling, ZLYTE; type: biochemical
IGF1R = IGF1R (Homo sapiens, UniProt P08069); experiment: SelectScreen kinase profiling, ZLYTE; type: biochemical
FLT4 (VEGFR3) = FLT4 (VEGFR3) (Homo sapiens, UniProt P35916); experiment: SelectScreen kinase profiling, ZLYTE; type: biochemical
NIM1K = NIM1K (Homo sapiens, UniProt Q8IY84); experiment: SelectScreen kinase profiling, ZLYTE; type: biochemical
CDC7/DBF4 = CDC7/DBF4 (Homo sapiens, UniProt O00311); experiment: SelectScreen kinase profiling, LanthaScreen binding; conditions: CDC7/DBF4, 10 µM
NEK2 = NEK2 (Homo sapiens, UniProt P51955); experiment: SelectScreen kinase profiling, ZLYTE; type: biochemical; conditions: NEK2, 10 µM
MET D1228H = MET D1228H (Homo sapiens, UniProt P08581, D1228H); experiment: SelectScreen kinase profiling, LanthaScreen binding
D283 cells = experiment: PrestoBlue Cell Viability assay; type: cell-based; conditions: D283, read-out: PB: IC50 of the PrestoBlue Viability assay
Method: (§1) Cell viability was assessed using the Presto Blue™ Cell Viability reagent (Thermo Fisher Scientific, Carlsbad, CA, USA) following the manufacturer’s instructions. Cells were plated in 96-well plates at the same densities described above for the proliferation assay. The fluorescence was measured after 24, 48, 72, and 96 h at concentrations ranging from 0.001 to 10 µM of the inhibitor. All assays were performed in triplicate.

BT-16 cells = experiment: PrestoBlue Cell Viability assay; type: cell-based; conditions: BT-16, read-out: PB: IC50 of the PrestoBlue Viability assay
Method: as §1

MON cells = experiment: PrestoBlue Cell Viability assay; type: cell-based; conditions: read-out: PB: IC50 of the PrestoBlue Viability assay
Method: as §1

T1 sequence (P52564 whole entry): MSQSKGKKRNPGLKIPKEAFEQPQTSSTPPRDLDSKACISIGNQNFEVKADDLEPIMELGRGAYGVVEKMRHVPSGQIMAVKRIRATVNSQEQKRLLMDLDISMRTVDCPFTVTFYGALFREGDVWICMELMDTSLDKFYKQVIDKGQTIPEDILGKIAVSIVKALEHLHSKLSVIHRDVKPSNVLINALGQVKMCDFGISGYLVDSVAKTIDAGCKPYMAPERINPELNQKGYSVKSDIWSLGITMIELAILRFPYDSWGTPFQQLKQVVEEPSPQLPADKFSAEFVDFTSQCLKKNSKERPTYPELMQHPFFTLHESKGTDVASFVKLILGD
Sequence of ABL2 (Arg) (P42684 whole entry): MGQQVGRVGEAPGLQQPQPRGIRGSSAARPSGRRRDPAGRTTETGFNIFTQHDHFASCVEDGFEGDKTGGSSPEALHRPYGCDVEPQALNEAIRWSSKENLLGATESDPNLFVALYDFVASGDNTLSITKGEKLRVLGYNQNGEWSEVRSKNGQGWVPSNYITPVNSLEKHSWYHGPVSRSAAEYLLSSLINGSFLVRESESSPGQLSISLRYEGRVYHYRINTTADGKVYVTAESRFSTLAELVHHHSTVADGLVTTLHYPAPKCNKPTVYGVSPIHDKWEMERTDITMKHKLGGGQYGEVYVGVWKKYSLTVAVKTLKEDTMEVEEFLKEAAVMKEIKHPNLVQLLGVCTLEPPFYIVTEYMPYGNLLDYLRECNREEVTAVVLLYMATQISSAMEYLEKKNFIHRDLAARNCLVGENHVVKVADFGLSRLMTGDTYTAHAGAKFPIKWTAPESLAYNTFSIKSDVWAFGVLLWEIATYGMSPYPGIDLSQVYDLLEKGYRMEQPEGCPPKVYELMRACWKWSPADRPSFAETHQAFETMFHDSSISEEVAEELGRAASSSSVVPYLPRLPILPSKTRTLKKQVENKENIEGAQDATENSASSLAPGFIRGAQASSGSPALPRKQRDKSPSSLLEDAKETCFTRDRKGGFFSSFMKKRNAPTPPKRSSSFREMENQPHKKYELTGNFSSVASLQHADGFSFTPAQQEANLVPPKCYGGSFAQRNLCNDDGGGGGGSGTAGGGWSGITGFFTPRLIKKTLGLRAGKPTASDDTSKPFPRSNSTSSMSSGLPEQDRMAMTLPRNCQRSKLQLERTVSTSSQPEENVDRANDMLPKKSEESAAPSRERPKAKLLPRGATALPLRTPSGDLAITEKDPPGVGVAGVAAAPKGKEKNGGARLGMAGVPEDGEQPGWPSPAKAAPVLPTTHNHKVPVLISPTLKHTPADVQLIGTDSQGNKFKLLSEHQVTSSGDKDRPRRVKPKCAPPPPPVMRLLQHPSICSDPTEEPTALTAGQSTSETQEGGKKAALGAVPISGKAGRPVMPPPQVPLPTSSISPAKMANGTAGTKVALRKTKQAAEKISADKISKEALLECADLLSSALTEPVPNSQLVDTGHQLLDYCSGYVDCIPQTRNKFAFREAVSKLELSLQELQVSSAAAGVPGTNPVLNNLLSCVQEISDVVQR
Sequence of NEK2 (P51955 whole entry): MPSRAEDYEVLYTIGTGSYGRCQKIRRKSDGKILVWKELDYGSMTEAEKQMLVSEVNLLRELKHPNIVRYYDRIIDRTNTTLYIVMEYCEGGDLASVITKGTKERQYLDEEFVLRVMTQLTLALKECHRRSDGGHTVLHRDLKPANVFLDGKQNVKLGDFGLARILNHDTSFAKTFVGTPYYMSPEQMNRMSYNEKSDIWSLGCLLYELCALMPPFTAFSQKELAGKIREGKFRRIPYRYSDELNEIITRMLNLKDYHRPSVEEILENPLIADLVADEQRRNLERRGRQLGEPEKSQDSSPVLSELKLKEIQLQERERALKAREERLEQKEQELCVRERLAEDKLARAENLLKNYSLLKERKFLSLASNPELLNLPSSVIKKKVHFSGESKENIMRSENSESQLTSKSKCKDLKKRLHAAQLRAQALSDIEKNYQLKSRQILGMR
Sequence of MERTK (cMER) (Q12866 21-999): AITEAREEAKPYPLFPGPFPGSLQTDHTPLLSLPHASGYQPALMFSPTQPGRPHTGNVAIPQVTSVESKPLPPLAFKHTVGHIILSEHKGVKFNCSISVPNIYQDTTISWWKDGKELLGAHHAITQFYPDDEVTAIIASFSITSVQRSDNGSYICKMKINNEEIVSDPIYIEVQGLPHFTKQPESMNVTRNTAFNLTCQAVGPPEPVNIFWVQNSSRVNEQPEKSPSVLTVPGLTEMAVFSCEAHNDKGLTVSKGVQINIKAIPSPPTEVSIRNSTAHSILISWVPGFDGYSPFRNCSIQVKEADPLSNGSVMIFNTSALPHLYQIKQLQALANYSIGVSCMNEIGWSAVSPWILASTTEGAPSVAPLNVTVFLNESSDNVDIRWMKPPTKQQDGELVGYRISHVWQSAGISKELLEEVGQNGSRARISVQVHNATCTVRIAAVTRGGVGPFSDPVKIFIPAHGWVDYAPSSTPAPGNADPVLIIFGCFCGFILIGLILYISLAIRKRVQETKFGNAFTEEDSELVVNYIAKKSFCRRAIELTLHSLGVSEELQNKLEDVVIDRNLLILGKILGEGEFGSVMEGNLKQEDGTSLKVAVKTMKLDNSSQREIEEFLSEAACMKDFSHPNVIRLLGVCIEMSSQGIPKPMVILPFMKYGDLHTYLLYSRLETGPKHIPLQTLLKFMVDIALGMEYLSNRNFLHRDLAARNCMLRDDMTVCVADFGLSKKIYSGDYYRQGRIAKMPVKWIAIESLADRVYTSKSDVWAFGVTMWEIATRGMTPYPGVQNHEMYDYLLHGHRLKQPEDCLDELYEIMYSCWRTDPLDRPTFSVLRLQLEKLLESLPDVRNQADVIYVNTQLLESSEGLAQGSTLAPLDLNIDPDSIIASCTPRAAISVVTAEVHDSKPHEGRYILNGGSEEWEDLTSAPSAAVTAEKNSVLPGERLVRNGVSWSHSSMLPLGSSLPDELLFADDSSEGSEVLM
Sequence of P450 2J2 (P51589 whole entry): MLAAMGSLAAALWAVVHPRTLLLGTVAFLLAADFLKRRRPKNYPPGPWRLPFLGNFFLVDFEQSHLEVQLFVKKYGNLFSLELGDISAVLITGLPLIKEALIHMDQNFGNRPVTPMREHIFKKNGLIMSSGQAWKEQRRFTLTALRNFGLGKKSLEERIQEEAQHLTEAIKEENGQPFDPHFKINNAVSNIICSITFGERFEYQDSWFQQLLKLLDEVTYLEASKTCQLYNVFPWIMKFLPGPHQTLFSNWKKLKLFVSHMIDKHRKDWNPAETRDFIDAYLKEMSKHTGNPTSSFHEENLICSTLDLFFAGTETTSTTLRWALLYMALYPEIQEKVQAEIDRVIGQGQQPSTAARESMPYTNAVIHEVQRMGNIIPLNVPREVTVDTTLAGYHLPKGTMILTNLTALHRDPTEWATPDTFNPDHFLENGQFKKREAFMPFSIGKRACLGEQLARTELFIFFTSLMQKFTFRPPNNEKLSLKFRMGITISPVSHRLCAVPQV
Sequence of EPHB1 (P54762 18-984): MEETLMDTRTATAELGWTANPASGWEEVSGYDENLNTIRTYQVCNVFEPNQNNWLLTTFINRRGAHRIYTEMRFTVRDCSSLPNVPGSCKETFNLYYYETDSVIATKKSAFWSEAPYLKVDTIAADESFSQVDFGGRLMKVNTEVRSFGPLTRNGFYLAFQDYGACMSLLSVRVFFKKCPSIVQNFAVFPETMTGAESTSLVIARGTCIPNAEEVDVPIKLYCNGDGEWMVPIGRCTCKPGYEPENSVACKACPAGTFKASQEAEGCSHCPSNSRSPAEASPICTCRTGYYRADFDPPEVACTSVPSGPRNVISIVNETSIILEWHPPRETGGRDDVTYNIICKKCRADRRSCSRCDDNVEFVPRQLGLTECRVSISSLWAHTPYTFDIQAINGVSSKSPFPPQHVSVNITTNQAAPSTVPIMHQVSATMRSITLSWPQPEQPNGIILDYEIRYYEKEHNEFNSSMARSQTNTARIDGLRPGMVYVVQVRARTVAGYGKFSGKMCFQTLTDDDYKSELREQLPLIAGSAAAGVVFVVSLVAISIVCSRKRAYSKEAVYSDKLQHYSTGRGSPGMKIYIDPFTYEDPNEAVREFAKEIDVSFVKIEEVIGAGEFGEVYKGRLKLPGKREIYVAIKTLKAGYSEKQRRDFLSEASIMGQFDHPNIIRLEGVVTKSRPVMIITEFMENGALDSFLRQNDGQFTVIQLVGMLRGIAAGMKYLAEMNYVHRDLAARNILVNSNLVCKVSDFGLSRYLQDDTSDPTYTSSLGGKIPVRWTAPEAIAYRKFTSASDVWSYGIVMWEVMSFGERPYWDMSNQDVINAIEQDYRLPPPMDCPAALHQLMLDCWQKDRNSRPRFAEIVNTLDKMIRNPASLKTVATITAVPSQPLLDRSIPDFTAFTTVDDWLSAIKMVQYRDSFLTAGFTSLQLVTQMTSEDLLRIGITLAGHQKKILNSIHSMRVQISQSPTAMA
Sequence of MAP2K1 (MEK1) (Q02750 whole entry): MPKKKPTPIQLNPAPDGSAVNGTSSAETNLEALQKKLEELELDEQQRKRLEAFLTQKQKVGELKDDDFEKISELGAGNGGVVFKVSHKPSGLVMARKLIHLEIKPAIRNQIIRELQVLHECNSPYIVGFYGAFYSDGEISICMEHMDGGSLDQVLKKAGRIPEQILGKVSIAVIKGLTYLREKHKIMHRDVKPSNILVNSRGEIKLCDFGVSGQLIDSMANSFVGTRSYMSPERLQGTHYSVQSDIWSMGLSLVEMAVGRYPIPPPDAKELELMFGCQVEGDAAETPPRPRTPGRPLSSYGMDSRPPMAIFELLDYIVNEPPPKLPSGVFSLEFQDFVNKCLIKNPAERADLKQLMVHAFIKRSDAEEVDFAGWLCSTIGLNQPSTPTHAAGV

O=C(c1ccc(/C=C/c2n[nH]c3ccccc23)cc1)N1CCNCC1 [KW-2449]
inhibition at 10 µM (AMPK (A1/B2/G1)): 77%
inhibition at 10 µM (MAP4K2 (GCK)): 101%
inhibition at 10 µM (MAP2K6 (MKK6) [1]): 79%
inhibition at 10 µM (EPHA3): 61%
inhibition at 10 µM (ACVR1B (ALK4)): 39%
inhibition at 10 µM (EPHB1): 97%
% Inhibition 2J2 MOBFC (P450 2J2): 96%
inhibition at 10 µM (AMPK (A1/B1/G3)): 71%
inhibition at 10 µM (MAP2K6 (MKK6) [2]): 56%
inhibition at 10 µM (RET G691S): -30%
inhibition at 10 µM (DDR2 T654M): 84%
inhibition at 10 µM (ABL2 (Arg)): 98%
inhibition at 10 µM (PIM1): 42%
inhibition at 10 µM (AMPK (A2/B2/G2)): 78%
inhibition at 10 µM (MAP2K1 (MEK1)): 72%
inhibition at 10 µM (CHEK2 (CHK2)): 100%
inhibition at 10 µM (LYN A): 89%
inhibition at 10 µM (MERTK (cMER)): 93%
inhibition at 10 µM (EPHB2): 95%
inhibition at 10 µM (ACVR1 (ALK2) R206H): 69%
inhibition at 10 µM (MAPK12 (p38 gamma)): 23%
inhibition at 10 µM [3]: -3%
inhibition at 10 µM (CLK3): 66%
inhibition at 10 µM (AURKA (Aurora A)): 98%
inhibition at 10 µM (ALK F1174L): 56%
IC50 (hERG channel): > 10 µM
inhibition at 10 µM (AMPK (A2/B2/G3)): 98%
inhibition at 10 µM (PRKCG (PKC gamma)): 81%
inhibition at 10 µM (IGF1R): 95%
inhibition at 10 µM (FLT4 (VEGFR3)): 95%
inhibition at 10 µM (NIM1K): 79%
inhibition at 10 µM (CDC7/DBF4): 16%
inhibition at 10 µM (NEK2): 47%
inhibition at 10 µM (MET D1228H): 75%
IC50 (D283 cells): > 10 µM
IC50 (BT-16 cells): 1.84 µM
IC50 (MON cells): 1.74 µM
